From publication PMC4229492 (International journal of toxicology, 2014)
Values joined by “and” are separate entries in the source; they are usually repeats but may differ in a detail not shown here. Equal values may be shown once.

Legend:
[1] = tested on: Salmonella typhimurium TA98; experiment: Ames assay, strain TA98; type: cell-based; details: for Mutagenic response (dose-related increase in revertant colonies): TA98, with and without metabolic activation; for Cytotoxicity to TA98: under any test condition; for Doses at which precipitate was seen on the plates: Ames plates
human whole blood = experiment: In vitro methemoglobin assay; type: cell-based
L6 rat myoblasts = details: read-out: IC50 against the L6 cell line; L6 rat myoblasts in vitro; cited from earlier work
[2] = tested on: human liver cancer cell lines (HepG2, Hep3B, Huh7, PLC5); experiment: Cytotoxicity, panel of four human liver cancer cell lines; type: cell-based; details: read-out: IC50 values, range over the panel of human liver cells
T. b. rhodesiense = details: read-out: antitrypanosomal IC50; T. b. rhodesiense in vitro; cited from earlier work
[3] = cited from earlier work
[4] = tested on: first stage trypanosome infection; details: i.p. 50 mg/kg/day for five days; cited from earlier work

Row | SMILES | Mutagenic response (dose-related increase in revertant colonies) [1] | Cytotoxicity to TA98 [1] | Methemoglobin level (human whole blood; 10 μM, 60 min, 37 °C) [%] | Methemoglobin level (human whole blood; 50 μM, 60 min, 37 °C) [%] | Doses at which precipitate was seen on the plates [1] [μg/plate] | Doses cytotoxic to the TA98 strain ([1]; in the absence of metabolic activation) [μg/plate] | Doses cytotoxic to the TA98 strain ([1]; in the presence of metabolic activation) [μg/plate] | IC50 (L6 rat myoblasts) [µM] | IC50 [2] [µM] | IC50 (T. b. rhodesiense) [µM] | OSU-36 plasma concentration ([3]; intravenous OSU-36.HCl 2 mg/kg, measured at 60 min, analyte OSU-36) | Outcome in murine first stage trypanosomiasis model [4] | Deacetylation in vivo ([3]; preliminary pharmacokinetic studies in rats) | Methemoglobin level (human whole blood; 5 mM, 10 min) [%] | Methemoglobin level (human whole blood; 5 mM, 30 min) [%] | Methemoglobin level (human whole blood; 5 mM, 60 min) [%]
1 | CC1=CC(C)(C)N(Cc2ccccc2)c2ccc(Cl)cc21 [JR-I-78, 1-benzyl-6-chloro-2,2,4-trimethyl-1,2-dihydroquinoline] | did not elicit a mutagenic response | not cytotoxic | 0.8 | 0.8 | – | – | – | – | – | – | – | – | – | – | – | –
2 | CC1=CC(C)(C)N(Cc2ccccc2)c2ccc(O)cc21.Cl [OSU-36.HCl, 1-benzyl-1,2-dihydro-2,2,4-trimethylquinolin-6-ol hydrochloride] | did not elicit a mutagenic response | – | 2.1 | 9.3 | ≥ 500 | ≥ 100 | ≥ 500 | 11 | 5.2 to 20 | 0.013 | approximately 150 ng/mL and ~ 0.53 μM | resulted in cures | – | – | – | –
3 | CC(=O)Oc1ccc2c(c1)C(C)=CC(C)(C)N2Cc1ccccc1 [OSU-40, 1-benzyl-1,2-dihydro-2,2,4-trimethylquinolin-6-yl acetate] | – | – | – | – | – | – | – | 24 | 8 to 36 | 0.012 | – | – | rapidly deacetylated | – | – | –
4 | COc1ccccc1CN1c2ccc(OC(C)=O)cc2C(C)=CC1(C)C [OSU-75, 1-(2-methoxybenzyl)-1,2-dihydro-2,2,4-trimethylquinolin-6-yl acetate] | did not elicit a mutagenic response | not cytotoxic | 1.2 | 3.8 | ≥ 500 | – | – | – | – | – | – | resulted in cures | – | – | – | –
5 | O=N[O-].[Na+] [Sodium nitrite, reference compound] | – | – | – | – | – | – | – | – | – | – | – | – | – | 37.4 | 41.2 | 50.6
